As usually defined, the Ki is a dissociation constant, usually derived from enzyme kinetics or from competition with a known ligand. A higher Ki goes with a looser hold on the target.

The target in the assay is T1, CCR3 (Homo sapiens, UniProt P51677).
T1 sequence (P51677 1-355): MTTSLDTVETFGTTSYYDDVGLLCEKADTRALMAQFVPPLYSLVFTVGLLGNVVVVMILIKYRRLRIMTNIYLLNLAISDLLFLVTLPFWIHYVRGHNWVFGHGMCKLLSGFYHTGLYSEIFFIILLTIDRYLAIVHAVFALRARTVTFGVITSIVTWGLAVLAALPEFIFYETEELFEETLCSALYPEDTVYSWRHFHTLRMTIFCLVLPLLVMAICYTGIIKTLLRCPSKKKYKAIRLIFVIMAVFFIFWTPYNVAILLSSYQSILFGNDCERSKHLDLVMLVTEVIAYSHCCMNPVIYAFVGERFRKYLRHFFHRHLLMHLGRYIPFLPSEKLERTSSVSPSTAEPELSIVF
The assay can be described thus: CCR3 receptor binding assay ([125I]-labeled human eotaxin/CCL11 displacement on cells). Conditions: 0.1 nM [125I]-labeled human eotaxin/CCL11, 2×10^5 cells/well, 60 min at room temperature. How it is done: CCR3 Receptor Binding Assay
Cells were washed once with PBS and resuspended in a binding buffer (25 mM HEPES pH 7.6, 5 mM MgCl2, 1 mM CaCl2, 0.5% BSA, 0.1% NaN3). […] of cell suspension (2×10^5 cells/well) and 0.1 nM [^125I]-labeled human eotaxin/CCL11 (2000 Ci/mmol specific activity) were mixed in a 96-well U-bottom polypropylene plate, and incubated for 60 min at room temperature for the binding reaction. The cell suspension was then transferred to a filtration plate (#MAFB, Millipore), and washed 3 times with the binding buffer containing 0.5 M NaCl, scintillant added, and the radioactivity was counted on a TopCount (Packard). For the determination of non-specific binding, the cell suspension and [^125I]-labeled human eotaxin/CCL11 were incubated in the presence of 500 nM of unlabeled human eotaxin/CCL11. See, lino et al., “Molecular cloning and functional characterization of cynomolgus monkey (Macaca fascicularis) CC chemokine receptor, CCR3,” Cytokine 2002, 19, 276-286.
Regarding `N#Cc1ccc(Oc2cc(Cl)cc(Cl)c2)c(S(=O)(=O)N2CCN(C(=O)c3ccno3)CC2)c1` [Compound 124], the inhibitory constant (Ki) fell in the range of 50 to 500 nM.

Turning to `N#Cc1ccc(Oc2cc(Cl)cc(Cl)c2)c(S(=O)(=O)N2CCN(C(N)=O)CC2)c1` [Compound 125], the inhibitory constant (Ki) was ≤ 50 nM. On to `Cc1cc(C(=O)N2CCN(S(=O)(=O)c3cc(C#N)ccc3Oc3cc(Cl)cc(Cl)c3)CC2)n(C)n1` [Compound 126], for which the Ki is > 5000 nM. In the case of `Cc1nnsc1C(=O)N1CCN(S(=O)(=O)c2cc(C#N)ccc2Oc2cc(Cl)cc(Cl)c2)CC1` [Compound 127], the inhibition constant Ki is ≤ 50 nM. For the molecule `N#Cc1ccc(Oc2cc(Cl)cc(Cl)c2)c(S(=O)(=O)N2CCN(C(=O)c3ccccn3)CC2)c1` [Compound 128], the Ki was in the range of 500 to 5000 nM. As for `N#Cc1ccc(Oc2cc(Cl)cc(Cl)c2)c(S(=O)(=O)N2CCN(C(=O)c3cc4ccccc4o3)CC2)c1` [Compound 129], the inhibitory constant (Ki) is > 5000 nM. Turning to `N#Cc1ccc(Oc2cc(Cl)cc(Cl)c2)c(S(=O)(=O)N2CCN(C(=O)c3ccc4nonc4c3)CC2)c1` [Compound 130], the inhibition constant (Ki) was > 5000 nM. In the case of `N#Cc1ccc(Oc2cc(Cl)cc(Cl)c2)c(S(=O)(=O)N2CCN(C(=O)c3cc4ccccc4s3)CC2)c1` [Compound 131], the inhibition constant (Ki) is > 5000 nM. For `N#Cc1ccc(Oc2cc(Cl)cc(Cl)c2)c(S(=O)(=O)N2CCN(C(=O)c3nc4ccccc4s3)CC2)c1` [Compound 132] the value was > 5000 nM; for `N#Cc1ccc(Oc2cc(Cl)cc(Cl)c2)c(S(=O)(=O)N2CCN(C(=O)c3cnccn3)CC2)c1` [Compound 133], 50 to 500 nM.

`N#Cc1ccc(Oc2cc(Cl)cc(Cl)c2)c(S(=O)(=O)N2CCN(C(=O)N3CCOCC3)CC2)c1` [Compound 134] yielded a Ki of 50 to 500 nM.

Turning to `N#Cc1ccc(Oc2cc(Cl)cc(Cl)c2)c(S(=O)(=O)N2CCN(C(=O)NCc3ccco3)CC2)c1` [Compound 135], the inhibition constant (Ki) is ≤ 50 nM. `N#Cc1ccc(Oc2cc(Cl)cc(Cl)c2)c(S(=O)(=O)N2CCN(C(=S)NCc3ccco3)CC2)c1` [Compound 136]: the Ki was ≤ 50 nM. `N#Cc1ccc(Oc2cc(Cl)cc(Cl)c2)c(S(=O)(=O)N2CCN(C(=S)NCCN3CCOCC3)CC2)c1` [Compound 137] yielded an inhibition constant (Ki) of 50 to 500 nM.

As for `Cc1ccsc1C(=O)N1CCN(S(=O)(=O)c2cc(C#N)ccc2Oc2cc(Cl)cc(Cl)c2)CC1` [Compound 138], the Ki was 50 to 500 nM. Take `Cc1nnsc1C(=O)N1CCN(S(=O)(=O)c2cc(C#N)ccc2Sc2cc(Cl)cc(Cl)c2)CC1` [Compound 139]: the Ki is ≤ 50 nM. With `CC(=O)c1cccc(NC(=O)N2CCN(S(=O)(=O)c3cc(C#N)ccc3Oc3cc(Cl)cc(Cl)c3)CC2)c1` [Compound 140], the Ki was ≤ 50 nM. Consider `N#Cc1ccc(Oc2cc(Cl)cc(Cl)c2)c(S(=O)(=O)N2CCN(C(=O)CCCCl)CC2)c1` [Compound 141], for which the Ki was ≤ 50 nM. `N#Cc1ccc(Oc2cc(Cl)cc(Cl)c2)c(S(=O)(=O)N2CCN(C(=O)NCCCl)CC2)c1` [Compound 142] came in with a Ki of 50 to 500 nM. In the case of `CCOC(=O)CCNC(=S)N1CCN(S(=O)(=O)c2cc(C#N)ccc2Oc2cc(Cl)cc(Cl)c2)CC1` [Compound 143], the Ki lay within 50 to 500 nM.

Take `N#Cc1ccc(Oc2cc(Cl)cc(Cl)c2)c(S(=O)(=O)N2CCN(C(=S)Nc3ccccc3)CC2)c1` [Compound 144]: the Ki was ≤ 50 nM. In the case of `N#Cc1ccc(Oc2cc(Cl)cc(Cl)c2)c(S(=O)(=O)N2CCN(C(=S)NC(=O)c3ccccc3)CC2)c1` [Compound 145], the Ki was ≤ 50 nM. For the molecule `CSCCCNC(=S)N1CCN(S(=O)(=O)c2cc(C#N)ccc2Oc2cc(Cl)cc(Cl)c2)CC1` [Compound 146], the inhibitory constant (Ki) was ≤ 50 nM. `N#Cc1ccc(Oc2cc(Cl)cc(Cl)c2)c(S(=O)(=O)N2CCN(C(=S)NC(=O)/C=C/c3ccccc3)CC2)c1` [Compound 147]: the inhibition constant (Ki) is > 5000 nM. For `N#CCC(=O)N1CCN(S(=O)(=O)c2cc(C#N)ccc2Oc2cc(Cl)cc(Cl)c2)CC1` [Compound 148] the value was 50 to 500 nM.

In the case of `N#Cc1ccc(Oc2cc(Cl)cc(Cl)c2)c(S(=O)(=O)N2CCN(C(=S)NCc3cccc(Cl)c3)CC2)c1` [Compound 149], the Ki was > 5000 nM.

For the molecule `C=CNC(=O)N1CCN(S(=O)(=O)c2cc(C#N)ccc2Oc2cc(Cl)cc(Cl)c2)CC1` [Compound 150], the inhibition constant Ki was > 5000 nM. On to `CC(C)CC(=O)N1CCN(S(=O)(=O)c2cc([N+](=O)[O-])ccc2Sc2cc(Cl)ccc2Cl)CC1` [Compound 152, 1-(4-(2-(2,5-Dichlorophenylthio)-5-nitrophenylsulfonyl)piperazin-1-yl)-3-methylbutan-1-one], for which the Ki is > 5000 nM. With `O=C(c1ccc(C(F)(F)F)cc1)N1CCN(S(=O)(=O)c2cc([N+](=O)[O-])ccc2Sc2cc(Cl)ccc2Cl)CC1` [Compound 153, (4-(2-(2,5-Dichlorophenylthio)-5-nitrophenylsulfonyl)piperazin-1-yl)(4-(trifluoromethyl)phenyl)methanone], the Ki is > 5000 nM. For `N/C(=N\[N+](=O)[O-])N1CCN(S(=O)(=O)c2cc([N+](=O)[O-])ccc2Oc2cc(Cl)cc(Cl)c2)CC1` [Compound 154], the inhibition constant Ki is > 5000 nM.

On to `N#Cc1ccc(Oc2cc(Cl)cc(Cl)c2)c(S(=O)(=O)N2CCN(C(=O)Oc3ccc([N+](=O)[O-])cc3)CC2)c1` [Compound 155], for which the inhibitory constant (Ki) was > 5000 nM. For `COc1ccc(OC(=O)N2CCN(S(=O)(=O)c3cc(C#N)ccc3Oc3cc(Cl)cc(Cl)c3)CC2)cc1` [Compound 156] the value was > 5000 nM; for `Cc1ccc(OC(=O)N2CCN(S(=O)(=O)c3cc(C#N)ccc3Oc3cc(Cl)cc(Cl)c3)CC2)cc1` [Compound 157], > 5000 nM.

On to `N#Cc1ccc(Oc2cc(Cl)cc(Cl)c2)c(S(=O)(=O)N2CCN(C(=O)OCCCCCl)CC2)c1` [Compound 158], for which the inhibition constant (Ki) is > 5000 nM. For the molecule `C=CCOC(=O)N1CCN(S(=O)(=O)c2cc(C#N)ccc2Oc2cc(Cl)cc(Cl)c2)CC1` [Compound 159], the Ki was > 5000 nM.

Turning to `O=C(CCCCl)N1CCN(S(=O)(=O)c2cc([N+](=O)[O-])ccc2Sc2cc(Cl)ccc2Cl)CC1` [Compound 160, 4-Chloro-1-(4-(2-(2,5-dichlorophenylthio)-5-nitrophenylsulfonyl)piperazin-1-yl)butan-1-one], the inhibition constant (Ki) is > 5000 nM. Turning to `O=C(C1CCC1)N1CCN(S(=O)(=O)c2cc([N+](=O)[O-])ccc2Sc2cc(Cl)ccc2Cl)CC1` [Compound 161, Cyclobutyl(4-(2-(2,5-dichlorophenylthio)-5-nitrophenylsulfonyl)piperazin-1-yl)methanone], the Ki was > 5000 nM.

With `O=C(C1CCCCC1)N1CCN(S(=O)(=O)c2cc([N+](=O)[O-])ccc2Sc2cc(Cl)ccc2Cl)CC1` [Compound 162, Cyclohexyl(4-(2-(2,5-dichlorophenylthio)-5-nitrophenylsulfonyl)piperazin-1-yl)methanone], the inhibitory constant (Ki) is > 5000 nM. Consider `O=C(c1ccccc1)N1CCN(S(=O)(=O)c2cc([N+](=O)[O-])ccc2Sc2cc(Cl)ccc2Cl)CC1` [Compound 163, (4-(2-(2,5-Dichlorophenylthio)-5-nitrophenylsulfonyl)piperazin-1-yl)(phenyl)methanone], for which the inhibitory constant (Ki) was > 5000 nM. Take `O=C(c1ccc(Cl)cc1)N1CCN(S(=O)(=O)c2cc([N+](=O)[O-])ccc2Sc2cc(Cl)ccc2Cl)CC1` [Compound 164, (4-Chlorophenyl)(4-(2-(2,5-dichlorophenylthio)-5-nitrophenylsulfonyl)-piperazin-1-yl)methanone]: the inhibition constant Ki is > 5000 nM. Regarding `COc1ccc(C(=O)N2CCN(S(=O)(=O)c3cc([N+](=O)[O-])ccc3Sc3cc(Cl)ccc3Cl)CC2)cc1` [Compound 165, (4-Methoxyphenyl)(4-(2-(2,5-dichlorophenylthio)-5-nitrophenylsulfonyl)-piperazin-1-yl)methanone], the Ki was > 5000 nM. For the molecule `Cc1ccc(C)c(Sc2ccc([N+](=O)[O-])cc2S(=O)(=O)N2CCN(C(=O)c3ccc(Cl)cc3)CC2)c1` [Compound 173, (4-Chlorophenyl)(4-(2-(2,5-dimethylphenylthio)-5-nitrophenylsulfonyl)-piperazin-1-yl)methanone], the Ki was > 5000 nM. Consider `COc1ccc(C(=O)N2CCN(S(=O)(=O)c3cc([N+](=O)[O-])ccc3Sc3cc(C)ccc3C)CC2)cc1` [Compound 174, (4-(2-(2,5-Dimethylphenylthio)-5-nitrophenylsulfonyl)piperazin-1-yl)(4-methoxyphenyl)methanone], for which the Ki is > 5000 nM. Regarding `CC(C)CC(=O)N1CCN(S(=O)(=O)c2cc([N+](=O)[O-])ccc2Oc2cc(Cl)ccc2Cl)CC1` [Compound 177, 1-(4-(2-(2,5-Dichlorophenoxy)-5-nitrophenylsulfonyl)piperazin-1-yl)-3-methylbutan-1-one], the Ki was > 5000 nM. With `COc1ccc(C(=O)N2CCN(S(=O)(=O)c3cc([N+](=O)[O-])ccc3Oc3cc(Cl)ccc3Cl)CC2)cc1` [Compound 184, (4-(2-(2,5-Dichlorophenoxy)-5-nitrophenylsulfonyl)piperazin-1-yl)(4-methoxyphenyl)methanone], the inhibition constant Ki was > 5000 nM.
